Patent publication US11084830B2, “Five-membered non aromatic ring-pyrimidine HIV-1 reverse transcriptase inhibitor, preparation method therefor, and uses thereof” (priority 2018, dated 2021)

Key:
WT HIV-1 strain (IIIB) = experiment: Anti-HIV-1 activity in MT-4 cells, MTT method, wild-type strain IIIB; format: cell-based; conditions: for SI IIIB: selectivity index, ratio of CC50/EC50, strain IIIB
Method: (§1) Antiviral potency was evaluated in MT-4 cell cultures infected with WT HIV-1 strain (IllB) as well as cells infected with a panel of NNRTI-resistant double-mutant strain K103N+Y181C (RES056).
(§2) Selected compounds were screened for inhibitory activity against HIV-1 using MTT method as describe previously by Christophe. Pannecouque et al. Nat. Protoc. […] And in vitro anti-HIV activity of compounds were supported by Rega Institute for Medical Research. The MTT assay is based on the reduction of the yellow colored 3-(4,5-dimethylthiazol-2-yl)-2,5-diphenyltetrazolium bromide (MTT) by mitochondrial dehydrogenases of metabolically active cells to a blue formazan which can be measured spectrophotometrically. Tested optical density served as an indicator for live cells, and survival rate can be concluded by testing the optical density of 540 nm and 690 nm. MT-4 cells infected with HIV-1 can only survive for 5 to 7 days without any treatment, but when HIV-1 inhibitors were added, they can protect MT-4 cell from cytopathic. Serial solution of compounds was added to MT-4 cells after infected with HIV-1, MTT method was used to detect the survival rate after culture for 5 to 7 days.
(§3) (1) MT-4 cells infected with HIV-1 viral strains (IIIB, Y181C/K103N) were provided by Rega Institute for Medical Research, Katholieke Universiteit Leuven, Belgium.
(§4) (3) Preparation of compounds: Stock solutions (10×final concentration) of test compounds is diluted with double distilled H2O for 5 folds and 5 concentrations of one compound are prepared.
(§5) (5) Test method (MTT method): Serial five-fold dilutions of test compounds were added to cultured MT-4 cells infected with HIV-1, after 5 to 7 days, MTT was added and cultured for a few hours.
(§6) The MTT method was described briefly as follows: stock solutions (10×final concentration) of test compounds were added in 25 μL volumes to two series of triplicate wells in order to allow simultaneous evaluation of the effects on mock- and HIV-infected cells. Using a Biomek 3000 robot (Beckman Instruments, Fullerton, Calif.), serial five-fold dilutions of the test compounds (final 200 μL volume per well) were made directly in flat-bottomed 96-well microtiter trays, including untreated control HIV-1 and mock-infected cell samples for each sample. […] Mock-infected cells were used to evaluate the effect of test compounds on uninfected cells to assess cytotoxicity. Exponentially growing MT-4 cells were centrifuged for 5 min at 1000 rpm and the supernatant was discarded. […] At five days after infection, the viability of mock- and HIV-infected cells was determined spectrophotometrically by means of MTT assay.
(§7) The MTT assay is based on the reduction of yellow-colored MTT (Acros Organics, Geel, Belgium) by mitochondrial dehydrogenase of metabolically active cells to form a blue-purple formazan that can be measured spectrophotometrically. The absorbances were read in an eight-channel computer-controlled photometer, at the wavelengths of 540 and 690 nm. All data were calculated using the median optical density (OD) value of three wells.

[1] = tested on: NNRTI-resistant double-mutant strain K103N+Y181C (RES056); experiment: microbe, parasite or virus in culture; format: cell-based, HIV-1; conditions: for EC50: Human immunodeficiency virus 1, MT4, read-out: EC50 RES056; for SI RES056: selectivity index, ratio of CC50/EC50, strain RES056
Method: as §1, §2, §3, §4, §5, §6, §7

[2] = Cytotoxicity in mock-infected MT-4 cells, MTT method; format: cell-based; conditions: human, CC50
Method: (§8) The MTT method was described briefly as follows: stock solutions (10×final concentration) of test compounds were added in 25 μL volumes to two series of triplicate wells in order to allow simultaneous evaluation of the effects on mock- and HIV-infected cells. Using a Biomek 3000 robot (Beckman Instruments, Fullerton, Calif.), serial five-fold dilutions of the test compounds (final 200 μL volume per well) were made directly in flat-bottomed 96-well microtiter trays, including untreated control HIV-1 and mock-infected cell samples for each sample. HIV-1 (IIIB) and mutant HIV-1 strains stock (50 μL at 100-300 CCID50) or culture medium was added to either the infected or mock-infected wells of the microtiter tray. Mock-infected cells were used to evaluate the effect of test compounds on uninfected cells to assess cytotoxicity. Exponentially growing MT-4 cells were centrifuged for 5 min at 1000 rpm and the supernatant was discarded. The MT-4 cells were resuspended at 6×10^5 cells/mL, and 50 μL aliquots were transferred to the microtiter tray wells. At five days after infection, the viability of mock- and HIV-infected cells was determined spectrophotometrically by means of MTT assay.
as §7

mock-infected MT-4 cells = experiment: as above; format: cell-based; conditions: human, 5 days
Method: as §8, §7

Compound | EC50 (WT HIV-1 strain (IIIB); Human immunodeficiency virus 1, IIIB, MT4, read-out: EC50 IIIB) [nM] | EC50 [1] [nM] | SI RES056 [1] | CC50 at 5 days [2] [nM] | CC50 (mock-infected MT-4 cells) [nM] | fold more potent than ETR (WT HIV-1 strain (IIIB); EC50 against HIV-1 IIIB compared with ETR) | SI IIIB (WT HIV-1 strain (IIIB))
Cc1cc(C#N)cc(C)c1Oc1nc(NC2CCN(Cc3ccc(C(N)=O)cc3)CC2)nc2c1COC2 [Compound B2, 4-((4-((4-(4-cyano-2,6-dimethylphenoxy)-5,7-dihydrofuro[3,4-d]pyrimidin-2-yl)amino)piperidin-1-yl)methyl)benzamide] | 2 | 41.5 ± 9.9 | >6039 | > 200000 | > 250000 | – | –
Cc1cc(C#N)cc(C)c1Oc1nc(NC2CCN(Cc3ccc(S(N)(=O)=O)cc3)CC2)nc2c1CCC2 [Compound C1, 4-((4-((4-(4-cyano-2,6-dimethylphenoxy)-6,7-dihydro-5H-cyclopenta[d]pyrimidin-2-yl)amino)piperidin-1-yl)methyl)benzenesulfonamide] | – | 25.8 | >9091 | > 200000 | > 234000 | about 4.6 fold | –
Cc1cc(C#N)cc(C)c1Oc1nc(NC2CCN(Cc3ccc(S(N)(=O)=O)cc3)CC2)nc2c1CSC2 [Compound D1, 4-((4-((4-(4-cyano-2,6-dimethylphenoxy)-5,7-dihydrothieno[3,4-d]pyrimidin-2-yl)amino)piperidin-1-yl)methyl)benzenesulfonamide] | – | 734 ± 337 | 36 | – | 26600 ± 1960 | – | 715
Cc1cc(C#N)cc(C)c1Oc1nc(NC2CCN(Cc3ccc(S(C)(=O)=O)cc3)CC2)nc2c1CSC2 [Compound D2, 3,5-dimethyl-4-((2-((1-(4-(methylsulfonyl)benzyl)piperidin-4-yl)amino)-5,7-dihydrothieno[3,4-d]pyrimidin-4-yl)oxy)benzonitrile] | – | 170 ± 32 | 266 | – | 45300 ± 31100 | – | 11690
